The subject of this test is C. krusei ATCC 32672. Put plainly: Checkerboard MIC assay, FICI. In kind it is cell-based, Candida krusei. The note with it: combination with Compound 1; C. krusei ATCC 32672. The text has this:
The following assay was used to determine the minimum inhibitory concentration (MIC) and fractional inhibitory concentration index (FICI) for combinations of an antifungal agent and a glycopeptide antibacterial agent. This assay and methods for calculating FICI are well known in the art. See, for example, Eliopoulos, E. G. and R. Moellering, Jr. “Antimicrobial Combinations” in Antibiotics in Laboratory Medicine, edited by V. Lorian, 4th Ed., Williams & Wilkins, Baltimore, MD, pp. 330-396 (1996); […] et al., Antimicrobial Agents and Chemotherapy 47(4):1416-1418 (2003); or […] et al., Antimicrobial Agents and Chemotherapy 46(10):3323-3326 (2002). Procedures, protocols, supplies and equipment used in this assay follow the recommendations approved and published by the National Committee for Clinical Laboratory Standards (NCCLS), Wayne, Pa. as described in NCCLS 2003, “Reference Method for Broth Dilution Antimicrobial Susceptibility Tests for Bacteria that Grow Aerobically; Approved Standard” (NCCLS document M7-A6); NCCLS 2002, “Reference Method for Broth Dilution Antifungal Susceptibility Tests of Filamentous Fungi that Grow Aerobically; Approved Standard” (NCCLS document M38-A); and NCCLS 2002 “Reference Method for Broth Dilution Antifungal Susceptibility Tests of Yeast; Approved Standards-2nd Edition” (NCCLS document M27-A2). Using a checkerboard method, a 2-fold dilution 100× final concentration master plate was prepared using a 96-well U-shape microtiter plate and an appropriate solvent. In the “checkerboard” method, a microtiter plate is divided into “columns” in which each well in the column contains the same amount of an antifungal agent (Compound A) being diluted along the x-axis, and “rows” in which each well in the row contains the same amount of a glycopeptide antibacterial agent (Compound B) being diluted on the y-axis. Also included is a row (or column) for Compound A or B alone. The dilutions used in the checkerboard are exponential (by powers of two). The result is that each well in the microtiter plate contains a unique concentration of the two compounds being tested. […] After mixing, 100 μL of 2× drug combinations were distributed into 96-well microtiter plates. […] Compound A was not added to Column 12, so Column 12 contained only Compound B. Compound B was diluted from row A starting at 6,400 μg/mL down to row G (100 μg/mL). Wells in Row A contained a final concentration of 64 μg/mL of Compound B; Row B contained a final concentration of 32 μg/mL of Compound B; Row C contained a final concentration of 16 μg/mL of Compound B; etc. Compound B was not added to Row H, so Row H only contained Compound A. […] The MIC of the glycopeptide antibacterial agent determined from this experiment was used in FIC calculations. […] RPMI-1640 without sodium bicarbonate media (GIBCO-BRL, Carlsbad, Calif.), an enriched media formulated for mammalian cells, was used according to the NCCLS guidelines for yeast and filamentous fungi susceptibility testing. The medium was buffered with 0.165 M 3-[N-Morpholino]propanesulfonic acid (MOPS) supplemented with 20 g/L glucose and pH adjusted to 7.0 with hydrogen chloride. Sabouraud Dextrose Agar ([…] plates, and Potato Dextrose Agar (PDA) plates were purchased from Hardy Diagnostic (Santa Maria, Calif.). Yeast cultures were started from -80° C. frozen stock streaked on […] incubated at 35° C. under aerobic conditions for 24 h. The […] in the refrigerator for up to 2 weeks and used regularly as a starting culture. About 24 to 48 h before each assay was run, yeasts were streaked on SDA plates for isolated colonies. To prepare the inoculum, from one to four colonies were resuspended in 5 mL of saline, and vortexed for 15 sec. […] For most yeast and mold cultures, the optical density (OD) of the suspension was adjusted to 0.11 in saline to provide 0.4×10^6 CFU/mL. However, for Fusarium moniliforme and Pseudallescheria boydii the OD of the suspension was adjusted to OD=0.17 to provide 0.4×10^6 CFU/mL. […]

For `C[C@@H]1[C@H](O)[C@@H](C)/C=C/C=C/C=C/C=C/C=C/C=C/C=C/[C@H](O[C@@H]2O[C@H](C)[C@@H](O)[C@H](N)[C@@H]2O)C[C@@H]2O[C@](O)(C[C@@H](O)C[C@@H](O)[C@H](O)CC[C@@H](O)C[C@@H](O)CC(=O)O[C@H]1C)C[C@H](O)[C@H]2C(=O)O` [Amphotericin B], the FICI is 0.31.

Take `C[C@@H]1[C@H](O)[C@@H](C)/C=C/C=C/CC/C=C/C=C/C=C/C=C/C(O[C@H]2O[C@H](C)[C@@H](O)[C@H](N)[C@@H]2O)CC2O[C@](O)(CC(O)C(O)CCC(O)CC(O)CC(O)CC(=O)O[C@H]1C)CC(O)C2C(=O)O` (some centres unmarked) [Nystatin]: the FICI was 0.50.

Values taken from patent US7521418B2, “Use of a polyene macrolide antifungal agent in combination with a glycopeptide antibacterial agent” (Theravance, Inc., priority 2003, dated 2009).
